Data as given in patent US11471477B2, “Methods for treating triple-negative breast cancer” (Chan Zuckerberg Biohub, Inc., priority 2017, dated 2022).

How the values were obtained:
PDX-T1 tumor cells = assay: Organoid colony formation assay; format: cell-based, human; settings: colonies counted 2 weeks after transduction
Protocol: (§1) For in vivo PDX tumor growth and organoid colony formation experiments, concentrated lentiviral supernatant (to achieve an MOI of 10) was mixed with single cell suspensions of PDX tumor cells in organoid media with 4 μg/mL of Polybrene (Sigma-Aldrich). Organoid media consisted of: Advanced DMEM/F12 (Invitrogen), 10% FBS (Hyclone), 2.5% growth factor-reduced Matrigel (BD), 10 ng/mL mouse EGF (R&D), 100 ng/mL Noggin (R&D), 250 ng/mL RSPO-1 (R&D), 1× B27 (Invitrogen), 1× N2 (Invitrogen), and PSA (Life Technologies). Cells were then spinoculated by centrifuging at 15° C. for 2 hours at 1200×g. Cells were resuspended by pipetting and left overnight in 48-well ultra-low attachment cell culture plates (Corning).
For organoid colony formation assays, cells were transferred the next day to matrigel. For in vivo PDX assays, approximately 75% of the cells were injected into NSG mice as described in the PDX tumor engraftment section. […] Dissociated cells were resuspended in flow cytometry buffer and analyzed by flow cytometry to determine the ‘baseline’ RFP percentage for cells that were injected into the mice.
Irradiated L1-Wnt3a feeder cells (generous gift of Dr. Roel Nusse) were mixed with growth factor reduced matrigel (BD Biosciences) and allowed to solidify at 37° C. […] Colonies were counted under fluorescence microscopy. Only RFP positive colonies (which represent transduced cells) were counted. […]

[1] = system: human mammary epithelial cells (HMEC); assay: Cell viability assay (WST-1), non-transformed mammary cells; format: cell-based; settings: 4 days after transduction; normalized to control shRNA
Protocol: (§2) For in vitro cell line experiments, concentrated lentiviral supernatant (to achieve an MOI of 3) was mixed with cells at the time of seeding. Cells were monitored by visualization of RFP under fluorescence microscopy. All flow cytometry analyses were performed after at least 72 hours of infection.
(§3) For cell lines treated with chemical or infected with lentivirus, WST-1 Cell Proliferation Reagent (Roche) was added at 1:10 (v/v) final dilution to each well per manufacturer's instructions. Cells were subsequently incubated at 37° C. and 5% CO2. Between 1 and 4 hours after addition of reagent, plates were analyzed on a SpectraMax M3 Bioanalyzer (Molecular Devices). Absorbance for each well was measured at 450 nm (signal wavelength) and 650 nm (reference wavelength). Thus, the signal for each experimental sample was Absorbanceexperimental (A450nm-A650nm). To correct for the effect of media, Absorbancebackground (A450nm-A650nm) was obtained by measuring absorbance in a blank well. Thus, the background corrected signal for each sample Acorrected=Absorbanceexperimental−Absorbancebackground. All Acorrected values for the knockdowns were normalized to the Acorrected value for the control sample to obtain a ‘Relative Viability’.

MDA-MB468 cells = assay: Cell viability assay (WST-1), shRNA-transduced cells; format: cell-based, human; settings: 4 days after transduction; normalized to control shRNA
Protocol: as §2, §3

MDA-MB231 cells = assay: as above; format: cell-based, human; settings: 4 days after transduction; normalized to control shRNA
Protocol: as §2, §3

HS578T cells = assay: as above; format: cell-based, human; settings: 4 days after transduction; normalized to control shRNA
Protocol: as §2, §3

PDX-T1 [2] = assay: RFP positive lung metastases in mice bearing PDX tumor xenografts; format: in vivo, NSG mice
Description: (§4) Xenograft tumors and mice lungs were surgically resected after the mice were euthanized. A 3 to 4 mm section is cut from each tumor and saved in ice cold PBS for imaging. The mice lungs and tumors were imaged on a M205FA Fluorescence Stereo Microscope (Leica) and images were captured with a DFC310FX camera (Leica).
(§5) Percentage of mice with RFP positive lung metastases from mice bearing PDX-T1 (FIG. 1K) or PDX-T4 (FIG. 1L) tumor xenografts are shown. Number of mice with RFP positive lung metastases and total number of mice in each treatment group is shown as a fraction for each condition. PDX tumor cells were transduced with either control shRNA or CDK19 targeting shRNA (shCDK19-1, shCDK19-2) (For FIG. 1K, n=9, experiment performed three times; For […], n=3, experiment performed once). […] In FIG. 1N, bright field images (left column) show gross lung morphology, FITC images (middle column) identify metastatic tumor cells labeled with GFP, and Texas-Red images (right column) identify shRNA-transduced metastatic cells labeled with RFP. We also tested the effect of CDK19 knockdown on PDX-T4, an aggressive PDX obtained from the brain metastasis of a patient with a chemotherapy-resistant inflammatory breast cancer.

PDX-T4 [3] = assay: as above; format: in vivo, NSG mice
Description: as §4, §5

CDK19 = assay: Quantitative PCR RNA expression analysis of CDK19 knockdown; format: cell-based, human; settings: normalized to control shRNA and beta-actin
Protocol: Cells were lysed with Trizol (Life Technologies) and RNA was extracted according to the manufacturer's instruction. RNA was then treated with DNAsel to remove contaminating genomic DNA. RNA was reverse transcribed to cDNA using SuperScript III First Strand Synthesis kit (Life Technologies) according to the manufacturer's instructions. TaqMan Gene Expression Master Mix (Applied Biosystems) and the following TaqMan Gene Expression Assays (Applied Biosystems) were used following manufacturer's instructions: ACTB, Hs00357333_g1; CDK19, Hs01039931_m1; CDK8, Hs00993274_m1. Data was collected on a 7900HT Fast Real-Time PCR System (Applied Biosystems) and data analyzed with SDS 2.4 software (Applied Biosystems). Gene expression data in each sample was normalized against the expression of beta-actin.

PDX-T1 [4] = assay: Survival of mice engrafted with shRNA-transduced PDX-T1 xenografts; format: in vivo, NSG mice; settings: mice with PDX-T1 tumors; vs control shRNA; sacrificed when tumor exceeded 17 mm
Description: We explored the effect of CDK19 knockdown on the growth of pre-established organoids in vitro and in pre-established PDX tumors in vivo. This aimed to model the treatment of patients' pre-existing tumors. […] In FIGS. 4A and 4B, number of organoid colonies at Day 0 (FIG. 4A) and Day 16 (FIG. 4B) after initiating doxycycline treatment is shown, ****P<0.0001; ns is P>0.05 (mean s.d., n=6, experiment performed twice, P values determined by unpaired t-test). […] In FIGS. 4C and 4D, the growth of pre-established tumors in the doxycycline fed NSG mice and control NSG mice are shown for inducCDK19KD-PDX-T1, ****P<0.0001; ***P<0.001 (mean±s.d., n=5, experiment performed twice, P values determined by unpaired t-test) (FIG. 4C) and inducCDK19KD-PDX-T3, ****P<0.0001; ***P<0.001 (mean±s.d., n=5, experiment performed once, P values determined by unpaired t-test) (FIG. 4D). CDK19 shRNA induced tumors were ultimately 82% smaller in inducCDK19KD-PDX-T1 tumors and 38% smaller in inducCDK19KD-PDX-T3 tumors when compared to control tumors (FIGS. 4C and 4D). […] Shown in FIG. 4E are Kaplan-Meir survival curves for mice engrafted with PDX-T1 xenografts transduced with control shRNA (black line), shCDK19-1 (solid gray line) or shCDK19-2 (dashed gray line). Mice were followed with weekly measurements of tumor diameters. Mice were sacrificed when the longest diameter of their tumor exceeded 17 mm. […]

PDX-T2 = assay: PDX tumor growth in NSG mice, percentage of RFP positive cells by flow cytometry; format: in vivo; settings: normalized to control shRNA
Protocol: as §1
(§6) For organoid colony formation assays, cells were transferred the next day to matrigel. For in vivo PDX assays, approximately 75% of the cells were injected into NSG mice as described in the PDX tumor engraftment section. The remainder 25% of cells were plated on matrigel and grown in organoid media for 72 hours until the cells became RFP positive. At that point media was removed and exchanged for dispase and incubated for 2-3 h until the matrigel dissolved. Dissociated cells were resuspended in flow cytometry buffer and analyzed by flow cytometry to determine the ‘baseline’ RFP percentage for cells that were injected into the mice.
(§7) Single cell suspensions of PDX cells were resuspended in 50% (v/v) mixtures of normal matrigel (BD Biosciences) and flow cytometry buffer in a total volume of 50-100 μL. Using an insulin syringe, cells were injected subcutaneously into the nipple of female NSG mice at the fourth abdominal fat pad. For limiting dilution assays, the specific number of cells injected into the mice were determined by flow cytometry and secondarily by manual counting with a hemocytometer.
(§8) Flow cytometry was performed with a 100 μm nozzle on a Flow Cytometry Aria II (BD Biosciences) with Diva software (BD Biosciences). Data analysis was performed using Flowjo software (Flowjo). For all experiments, side scatter and forward scatter profiles (area and width) were used to eliminate debris and cell doublets. Dead cells were eliminated by excluding 4′,6-diamidino-2-phenylindole (DAPI)-positive cells (Molecular Probes). For PDX tumor cells, they were gated for GFP positivity and then for RFP positivity. RFP percentage is the percentage of GFP positive cells that are also RFP positive. For each sample, we obtain the RFP fraction that is: the RFP % in the tumor divided by the baseline RFP % (see ‘Lentivirus infection’ section). RFP fraction for each sample is then normalized to the RFP fraction for the shRNA control sample which is set at 100% to obtain the ‘Normalized % RFP’.

PDX-T1 [5] = assay: as above; format: in vivo; settings: normalized to control shRNA
Protocol: as §1, §6, §7, §8

PDX-T3 = assay: as above; format: in vivo; settings: normalized to control shRNA
Protocol: as §1, §6, §7, §8

PDX-T4 [6] = assay: as above; format: in vivo
Protocol: as §1, §6, §7, §8

| Substance | Formation of organoid colonies (PDX-T1 tumor cells) | Relative viability of HMEC cells [1] | Relative viability of MDA-MB468 cells (MDA-MB468 cells) | Relative viability of MDA-MB231 cells (MDA-MB231 cells) | Relative viability of HS578T cells (HS578T cells) | RFP positive lung metastases (PDX-T1 [2]) | RFP positive lung metastases (PDX-T4 [3]) | Expression of CDK19 by RT-qPCR (CDK19; MDA-MB231) | Expression of CDK19 by RT-qPCR (CDK19; MDA-MB468) | Expression of CDK19 by RT-qPCR (CDK19; PDX-T1) | Overall survival (PDX-T1 [4]) | Percentage of RFP positive cells in tumors (PDX-T2) | Percentage of RFP positive cells in tumors (PDX-T1 [5]) | Percentage of RFP positive cells in tumors (PDX-T3) | Growth of the PDX (PDX-T4 [6]) |
| --- | --- | --- | --- | --- | --- | --- | --- | --- | --- | --- | --- | --- | --- | --- | --- |
| shCDK19-2: CDK19 targeting shRNA, sense strand 5′-ACCAGCAAATATCCTAGTAAT-3′ (SEQ ID NO: 2), lentiviral vector (sense ACCAGCAAATATCCTAGTAAT; listed as Homo sapiens) | inhibited the formation of organoid colonies | neither of the two CDK19 knockdowns affected the viability | significantly decreased the viability | significantly decreased the viability | significantly decreased the viability | eliminated the detection of any lung metastases | prevented transduced (RFP positive) TNBC cells from metastasizing to the lungs | effectively silences CDK19 | effectively silences CDK19 | effectively silences CDK19 | significantly longer | significant reduction in the percentage of RFP positive cells | significant reduction in the percentage of RFP positive cells | significant reduction in the percentage of RFP positive cells | inhibited both the growth of the PDX |
| shCDK19-1: CDK19 targeting shRNA, sense strand 5′-GCGAGAATTGAAGTACCTTAA-3′ (SEQ ID NO: 1), lentiviral vector (sense GCGAGAATTGAAGTACCTTAA; listed as Homo sapiens) | inhibited the formation of organoid colonies | neither of the two CDK19 knockdowns affected the viability | significantly decreased the viability | significantly decreased the viability | significantly decreased the viability | eliminated the detection of any lung metastases | prevented transduced (RFP positive) TNBC cells from metastasizing to the lungs | effectively silences CDK19 | effectively silences CDK19 | effectively silences CDK19 | significantly longer | significant reduction in the percentage of RFP positive cells | significant reduction in the percentage of RFP positive cells | significant reduction in the percentage of RFP positive cells | inhibited both the growth of the PDX |
